# According to patent US9540377B2, “2,6,7,8 substituted purines as HDM2 inhibitors” (Merck Sharp & Dohme Corp., priority 2013, dated 2017):
# Where two headings read alike, the source gives them in different places.
# What was measured:
# HDM2 = HDM2 (Homo sapiens (Human), UniProt Q00987); test: FRET assay (FRET IC50 of Tables 1-11); assay type: binding
# [1] = molecular target: HDM2 (truncated, residues 17 to 125, containing p53 binding surface) (Homo sapiens (Human), UniProt Q00987); test: HDM2 FRET assay (inhibition of binding of FITC labeled p53-site peptide to HDM2)
# HDM2 (truncated, residues 17 to 125, containing p53 binding surface), sequence (Q00987 17-125): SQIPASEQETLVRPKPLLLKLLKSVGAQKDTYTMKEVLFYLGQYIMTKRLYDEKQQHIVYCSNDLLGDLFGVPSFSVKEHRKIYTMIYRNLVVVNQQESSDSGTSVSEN
# Text: IC50 DETERMINATIONS: Dose-response curves were plotted from the inhibition data, from 10 point serial dilutions of inhibitory compounds. Concentration of compound was plotted against em520/Cem495 ratio signal. To generate IC50 values, the dose-response curves were fitted to a standard sigmoidal curve and IC50 values were derived by nonlinear regression analysis.
# HDM2, sequence (Q00987 17-125): as above
Molecule,IC50 ([1]; Table 23),also measured
6-{[(1R)-1-cyclopropylethyl]ammo}-8-phenyl-7-[4-(trifluoromethyl)benzyl]-7H-purine-2-carboxylic acid [Example 1.96],–,IC50 (HDM2): 371 nM
"COC(C)(c1c(F)cccc1F)c1nc2nc(-c3n[nH]c(=O)o3)nc(-c3cncc(Cl)c3)c2n1C[C@H]1CC[C@H](C)CC1 (single isomer, unassigned) [Example 23.89, 5-{6-(5-chloropyridin-3-yl)-8-[1-(2,6-difluorophenyl)-1-methoxyethyl]-7-[(trans-4-methylcyclohexyl)methyl]-7H-purin-2-yl}-1,3,4-oxadiazol-2(3H)-one]",5.12 nM,–
"COC(C)(c1c(F)cccc1F)c1nc2nc(-c3noc(=O)[nH]3)nc(-c3cncc(Cl)c3)c2n1C[C@H]1CC[C@H](C)CC1 (single isomer, unassigned) [Example 23.93, 3-{6-(5-chloropyridin-3-yl)-8-[1-(2,6-difluorophenyl)-1-methoxyethyl]-7-[(trans-4-methylcyclohexyl)methyl]-7H-purin-2-yl}-1,2,4-oxadiazol-5(4H)-one]",0.452 nM,–
"CC1COCCC1(F)c1nc2nc(-c3noc(=O)[nH]3)nc(-c3cncc(Cl)c3)c2n1C[C@H]1CC[C@H](C)CC1 (single isomer, unassigned) [Example 23.94, 3-{6-(5-chloropyridin-3-yl)-8-(4-fluoro-3-methyltetrahydro-2H-pyran-4-yl)-7-[(trans-4-methylcyclohexyl)methyl]-7H-purin-2-yl}-1,2,4-oxadiazol-5(4H)-one]",23.4 nM,–
"CC1COCCC1(F)c1nc2nc(-c3noc(=O)[nH]3)nc(-c3cncc(Cl)c3)c2n1C[C@H]1CC[C@H](C)CC1 (single isomer, unassigned) [Example 23.95, 3-{6-(5-chloropyridin-3-yl)-8-(4-fluoro-3-methyltetrahydro-2H-pyran-4-yl)-7-[(trans-4-methylcyclohexyl)methyl]-7H-purin-2-yl}-1,2,4-oxadiazol-5(4H)-one]",4.33 nM,–
"CC(F)(c1ncccc1F)c1nc2nc(-c3noc(=O)[nH]3)nc(-c3cncc(Cl)c3)c2n1C[C@H]1CC[C@H](C)CC1 (single isomer, unassigned) [Example 23.98, 3-{6-(5-chloropyridin-3-yl)-8-[1-fluoro-1-(3-fluoropyridin-2-yl)ethyl]-7-[(trans-4-methylcyclohexyl)methyl]-7H-purin-2-yl}-1,2,4-oxadiazol-5(4H)-one]",9.74 nM,–
"CC(F)(c1ncccc1F)c1nc2nc(-c3noc(=O)[nH]3)nc(-c3cncc(Cl)c3)c2n1C[C@H]1CC[C@H](C)CC1 (single isomer, unassigned) [Example 23.99, 3-{6-(5-chloropyridin-3-yl)-8-[1-fluoro-1-(3-fluoropyridin-2-yl)ethyl]-7-[(trans-4-methylcyclohexyl)methyl]-7H-purin-2-yl}-1,2,4-oxadiazol-5(4H)-one]",0.315 nM,–
"CC(C)c1ccnc(-c2nc3nc(-c4noc(=O)[nH]4)nc(N[C@H](C)C4CCC4)c3n2C[C@@H]2CC[C@@H](C)C(F)(F)C2)c1 (stereo in doubt) [Example 18.11, 3-(6-(((R)-1-cyclobutylethyl)amino)-7-((trans-3,3-difluoro-4-methylcyclohexyl)methyl)-8-(4-isopropylpyridin-2-yl)-7H-purin-2-yl)-1,2,4-oxadiazol-5(4H)-one]",–,IC50 ([1]; Table 18): 2.79 nM
"COc1ccc(C)cc1-c1nc2nc(C(=O)O)nc(N[C@H](C)C3CC3(F)F)c2n1Cc1ccc(C(F)(F)F)cc1 (stereo partly drawn) [Example 7.19, 6-{[(1R)-1-(2,2-difluorocyclopropyl)ethyl]amino}-8-(2-methoxy-5-methylphenyl)-7-[4-(trifluoromethyl)benzyl]-7H-purine-2-carboxylic acid]",–,IC50 (HDM2): 72.2 nM
"C[C@@H](Nc1nc(C(=O)O)nc2nc(N3CCCCC3Cc3ccccc3)n(Cc3ccc(C(F)(F)F)cc3)c12)C1CCC1 (stereo partly drawn) [Example 9.3, 8-(2-benzylpiperidin-1-yl)-6-{[(1R)-1-cyclobutylethyl]amino}-7-[4-(trifluoromethyl)benzyl]-7H-purine-2-carboxylic acid]",–,IC50 (HDM2; Table 9): 20.7 nM
